Drawing on ChEMBL document CHEMBL5550123, “Discovery of novel pyridone-benzamide derivatives possessing a 1-methyl-2-benzimidazolinone moiety as potent EZH2 inhibitors for the treatment of B-cell lymphomas” (Bioorg Med Chem, 2024), this text covers IC50, microsomal CLint and half-life for 37 compounds.

Usually IC50 stands for the concentration at which inhibition is half-maximal. As usually defined, the half-life is the time in which the quantity being followed falls by half.

Molecules are shown by their SMILES.

In data set [1] the test system is KARPAS-422. Nature of the data set: Antiproliferative activity against human KARPAS-422 cells assessed as inhibition of cell growth measured after 72 hrs by CCK-8 method. The format is functional, cell-based. The conditions noted are these: KARPAS-422, 72 h. For orientation: Formazan colour is commonly taken as a measure of viable cells.
Data set [2] can be described thus: Metabolic stability in human liver microsomes assessed as intrinsic clearance at 1 uM measured upto 60 mins in presence of NADPH by LC-MS/MS analysis. The format is ADME, Microsome. The conditions noted are these: read-out: CLH.
Data set [3] can be described thus: Inhibition of EZH2 Y641N mutant (unknown origin) preincubated for 15 mins followed by substrate addition and measured after 45 mins by AlphaLISA assay. Further details: species or system Homo sapiens. Background: Bead proximity is the source of the signal in Alpha formats.
A short description of data set [4]: Metabolic stability in human liver microsomes assessed as half life at 1 uM measured upto 60 mins in presence of NADPH by LC-MS/MS analysis. The format is ADME, Microsome.
Data set [5] in a line: Inhibition of EZH2 Y641F mutant (unknown origin) preincubated for 15 mins followed by substrate addition and measured after 45 mins by AlphaLISA assay. Also on record: species or system Homo sapiens.

Take `CCN(c1cc(-c2ccc3c(c2)n(C)c(=O)n3C2CCN(C)CC2)cc(C(=O)NCc2c(C)cc(C)[nH]c2=O)c1C)C1CCN(C2COC2)CC1`: the IC50 in data set [1] is 219 nM.

Consider `CCN(c1cc(-c2ccc3c(c2)n(C)c(=O)n3C2CCN(C)CC2)cc(C(=O)NCc2c(C)cc(C)[nH]c2=O)c1C)C1CCN(C(C)=O)CC1`, for which the IC50 in data set [1] is 105 nM.

`CCN(c1cc(-c2ccc3c(c2)n(C)c(=O)n3C2CCN(C)CC2)cc(C(=O)NCc2c(C)cc(C)[nH]c2=O)c1C)C1CCN(C)CC1`: the half-inhibitory concentration (IC50) in data set [1] worked out at 173 nM.

For the compound `CCN(c1cc(-c2ccc3c(c2)n(C)c(=O)n3C2CCN(CC3CC3)CC2)cc(C(=O)NCc2c(C)cc(C)[nH]c2=O)c1C)C1CCOCC1`, the IC50 in data set [1] was 24.6 nM.

Turning to `CCN(c1cc(-c2ccc3c(c2)n(C)c(=O)n3C2CCN(C(=O)C3CC3)CC2)cc(C(=O)NCc2c(C)cc(C)[nH]c2=O)c1C)C1CCOCC1`, the IC50 in data set [1] was found to be 27.8 nM.

Regarding `CCN(c1cc(-c2ccc3c(c2)n(C)c(=O)n3C2CCN(C)CC2)cc(C(=O)NCc2c(C)cc(C)[nH]c2=O)c1C)C1CCOCC1`, in data set [1], the IC50 stood at 18.4 nM.

With `CCN(c1cc(-c2ccc3c(c2)n(C)c(=O)n3C2CCN(C)CC2)cc(C(=O)NCc2c(C)cc(C)[nH]c2=O)c1C)C1CCC(N(C)C2COC2)CC1` (stereo not given), the IC50 in data set [1] was found to be 23.2 nM.

Take `CCN(c1cc(-c2ccc3c(c2)[nH]c(=O)n3C2CCOCC2)cc(C(=O)NCc2c(C)cc(C)[nH]c2=O)c1C)C1CCOCC1`: the IC50 in data set [1] came to 51.2 nM.

With `CCN(c1cc(-c2ccc3c(c2)n(CC)c(=O)n3C2CCOCC2)cc(C(=O)NCc2c(C)cc(C)[nH]c2=O)c1C)C1CCOCC1`, the IC50 in data set [1] came to 62.5 nM.

For `CCN(c1cc(-c2ccc3c(c2)n(C2CN(C)C2)c(=O)n3C)cc(C(=O)NCc2c(C)cc(C)[nH]c2=O)c1C)C1CCOCC1`, the IC50 in data set [1] worked out at 43.5 nM.

With `CCN(c1cc(-c2ccc3c(c2)n(C)c(=O)n3C2CCN(CC(F)(F)F)CC2)cc(C(=O)NCc2c(C)cc(C)[nH]c2=O)c1C)C1CCOCC1`, in data set [1], the IC50 was determined as 52.8 nM.

For `CCN(c1cc(-c2ccc3c(c2)n(C)c(=O)n3C2CCN(S(C)(=O)=O)CC2)cc(C(=O)NCc2c(C)cc(C)[nH]c2=O)c1C)C1CCOCC1`, the IC50 in data set [1] was 68.4 nM.

Turning to `CCN(c1cc(-c2ccc3c(c2)n(C)c(=O)n3C2CN(C)C2)cc(C(=O)NCc2c(C)cc(C)[nH]c2=O)c1C)C1CCOCC1`, the IC50 in data set [1] amounted to 29.3 nM.

Consider `CCN(c1cc(-c2ccc3c(c2)n(C)c(=O)n3C2CCN(CC#N)CC2)cc(C(=O)NCc2c(C)cc(C)[nH]c2=O)c1C)C1CCOCC1`, for which the IC50 in data set [1] is 53.8 nM.

For `CCN(c1cc(-c2ccc3c(c2)n(C2CN(C4COC4)C2)c(=O)n3C)cc(C(=O)NCc2c(C)cc(C)[nH]c2=O)c1C)C1CCOCC1`, the IC50 in data set [1] was found to be 154 nM.

For `CCN(c1cc(-c2ccc3c(c2)n(C)c(=O)n3C2CCN(C3COC3)CC2)cc(C(=O)NCc2c(C)cc(C)[nH]c2=O)c1C)C1CCOCC1`, the IC50 in data set [1] came to 25.5 nM.

On to `CCN(c1cc(-c2ccc3c(c2)n(C)c(=O)n3C2CN(CC3CC3)C2)cc(C(=O)NCc2c(C)cc(C)[nH]c2=O)c1C)C1CCOCC1`, for which the IC50 in data set [1] stood at 39.7 nM.

On to `CCN(c1cc(-c2ccc3c(c2)n(C)c(=O)n3C2CCN(C(C)=O)CC2)cc(C(=O)NCc2c(C)cc(C)[nH]c2=O)c1C)C1CCOCC1`, for which the half-maximal inhibitory concentration (IC50) in data set [1] was 85.8 nM.

`CCN(c1cc(-c2ccc3c(c2)n(C)c(=O)n3CCOC)cc(C(=O)NCc2c(C)cc(C)[nH]c2=O)c1C)C1CCOCC1`: the IC50 in data set [1] came to 60.8 nM.

In the case of `CCN1CCC(n2c(=O)n(C)c3ccc(-c4cc(C(=O)NCc5c(C)cc(C)[nH]c5=O)c(C)c(N(CC)C5CCOCC5)c4)cc32)CC1`, the IC50 in data set [1] stood at 32.8 nM.

With `CCN(c1cc(-c2ccc3c(c2)n(C)c(=O)n3C2CN(CC(F)F)C2)cc(C(=O)NCc2c(C)cc(C)[nH]c2=O)c1C)C1CCOCC1`, in data set [1], the IC50 amounted to 45.6 nM.

Take `CCN(c1cc(-c2ccc3c(c2)n(C)c(=O)n3C2CCN(C)CC2)cc(C(=O)NCc2c(C)cc(C)[nH]c2=O)c1C)C1CCC(N(C)CCOC)CC1` (stereo not given): in data set [2], the microsomal CLint at 1 µM was 9.38 µL/min/mg. For the same compound, the IC50 in data set [3] amounted to 0.17 nM; in data set [1], 9.63 nM; in data set [5], 0.14 nM. Moreover, in data set [4], the half-life at 1 µM turned out to be 2.46 h.

`CCN(c1cc(-c2ccc3c(c2)n(C)c(=O)n3C2CN(CC#N)C2)cc(C(=O)NCc2c(C)cc(C)[nH]c2=O)c1C)C1CCOCC1`: the IC50 in data set [1] came out at 58.2 nM.

Take `CCN(c1cc(-c2ccc3c(c2)n(C)c(=O)n3C2CCOCC2)cc(C(=O)NCc2c(C)cc(C)[nH]c2=O)c1C)C1CCOCC1`: the IC50 in data set [1] was found to be 49.5 nM.

Turning to `CCN(c1cc(-c2ccc3c(c2)n(C)c(=O)n3C2CCN(C)CC2)cc(C(=O)NCc2c(C)cc(C)[nH]c2=O)c1C)C1CCN(CC2CC2)CC1`, the IC50 in data set [1] came to 159 nM.

Take `CCN1CC(n2c(=O)n(C)c3ccc(-c4cc(C(=O)NCc5c(C)cc(C)[nH]c5=O)c(C)c(N(CC)C5CCOCC5)c4)cc32)C1`: the IC50 in data set [1] was determined as 52.9 nM.

For the compound `CCN(c1cc(-c2ccc3c(c2)n(C2CCN(C)CC2)c(=O)n3C)cc(C(=O)NCc2c(C)cc(C)[nH]c2=O)c1C)C1CCOCC1`, in data set [1], the IC50 amounted to 26.3 nM.

For the compound `CCN(c1cc(-c2ccc(CN3CCOCC3)cc2)cc(C(=O)NCc2c(C)cc(C)[nH]c2=O)c1C)C1CCOCC1` [TAZEMETOSTAT], the microsomal CLint at 1 µM in data set [2] worked out at 174 µL/min/mg. For the same compound, the IC50 in data set [3] stood at 0.85 nM; in data set [1] it was 35 nM; in data set [5], 0.37 nM. In addition, the half-life at 1 µM in data set [4] stood at 0.133 h.

Regarding `CCN(c1cc(-c2ccc3c(c2)n(C)c(=O)n3C2COC2)cc(C(=O)NCc2c(C)cc(C)[nH]c2=O)c1C)C1CCOCC1`, the IC50 in data set [1] is 57.4 nM.

`CCN(c1cc(-c2ccc3c(c2)n(C)c(=O)n3C2CN(C(C)=O)C2)cc(C(=O)NCc2c(C)cc(C)[nH]c2=O)c1C)C1CCOCC1`: the IC50 in data set [1] was found to be 145 nM.

For the compound `CCN(C)C1CCC(N(CC)c2cc(-c3ccc4c(c3)n(C)c(=O)n4C3CCN(C)CC3)cc(C(=O)NCc3c(C)cc(C)[nH]c3=O)c2C)CC1` (stereo not given), the IC50 in data set [1] was found to be 26.4 nM.

Consider `CCN1CCC(n2c(=O)n(C)c3cc(-c4cc(C(=O)NCc5c(C)cc(C)[nH]c5=O)c(C)c(N(CC)C5CCOCC5)c4)ccc32)CC1`, for which, in data set [1], the IC50 stood at 23.5 nM.

Take `CCN(c1cc(-c2ccc3c(c2)n(C)c(=O)n3C2CCN(CC(F)F)CC2)cc(C(=O)NCc2c(C)cc(C)[nH]c2=O)c1C)C1CCOCC1`: the IC50 in data set [1] is 50.6 nM.

Take `CCN(c1cc(-c2ccc3c(c2)n(C2CCOCC2)c(=O)n3C)cc(C(=O)NCc2c(C)cc(C)[nH]c2=O)c1C)C1CCOCC1`: in data set [1], the IC50 came out at 29.9 nM.

With `CCC(=O)N1CCC(n2c(=O)n(C)c3cc(-c4cc(C(=O)NCc5c(C)cc(C)[nH]c5=O)c(C)c(N(CC)C5CCOCC5)c4)ccc32)CC1`, in data set [1], the IC50 is 37.7 nM.

Regarding `CCN(c1cc(-c2ccc3c(c2)n(C)c(=O)n3C2CN(C(=O)C3CC3)C2)cc(C(=O)NCc2c(C)cc(C)[nH]c2=O)c1C)C1CCOCC1`, the IC50 in data set [1] came out at 31.2 nM.

For the compound `CCN(C(=O)C1CC1)c1cc(-c2ccc3c(c2)n(C)c(=O)n3C2CCN(C)CC2)cc(C(=O)NCc2c(C)cc(C)[nH]c2=O)c1C`, the IC50 in data set [1] came out at 29.8 nM.
